target: recombinant human NSD2 (Homo sapiens (Human), UniProt O96028); assay: NSD2 inhibitory activity, modified RBC HotSpot HMT Assay (3H-SAM, oligonucleosome substrate); assay type: biochemical; conditions: recombinant human NSD2 (2 nM), chicken oligonucleosomes 0.05 mg/ml, 3H-SAM 1 μM, 1 hour at 30° C.
Description: Exemplary compounds were tested for NSD2 inhibitory activity using a modified RBC HotSpot HMT Assay.
A reaction mixture was prepared by adding oligonucleosomes from Chicken (0.05 mg/ml) to freshly prepared reaction buffer containing 50 mM Tris-HCl (pH 8.5), 50 mM NaCl, 5 mM MgCl2, 0.01% Brij35, 1 mM DTT, and 1% DMSO followed by the addition of recombinant human NSD2, (amino acids 2-end) with N-terminal His tag (2 nM; GenBank Accession No. NM_001042424; MW=155.5 kDa; expressed in Sf9 insect cells) and gentle mixing. The test compounds were diluted in DMSO, added to the reaction mixture in nanoliter amounts by using Acoustic Technology (Echo 550, LabCyte Inc. Sunnyvale, CA) and incubated for 20 minutes at room temperature. The reaction was initiated by the addition of S-Adenosyl-L-[methyl-^3H] methionine (3H-SAM; 1 μM), and the mixture was incubated for 1 hour at 30° C. The reaction mixture was delivered to filter paper and the methylated substrate was quantified by scintillation counting. Data analysis was performed using Excel and GraphPad Prism software for IC50 curve fits. For additional information on the histone methyltransferase assay, see, for example, Horiuchi K Y, et al., “Assay Development for Histone Methyltransferases,” Assay Drug Dev Technol. 2013 May; 11 (4): 227-36.

Sequence of recombinant human NSD2 (O96028 2-1365 limits assumed): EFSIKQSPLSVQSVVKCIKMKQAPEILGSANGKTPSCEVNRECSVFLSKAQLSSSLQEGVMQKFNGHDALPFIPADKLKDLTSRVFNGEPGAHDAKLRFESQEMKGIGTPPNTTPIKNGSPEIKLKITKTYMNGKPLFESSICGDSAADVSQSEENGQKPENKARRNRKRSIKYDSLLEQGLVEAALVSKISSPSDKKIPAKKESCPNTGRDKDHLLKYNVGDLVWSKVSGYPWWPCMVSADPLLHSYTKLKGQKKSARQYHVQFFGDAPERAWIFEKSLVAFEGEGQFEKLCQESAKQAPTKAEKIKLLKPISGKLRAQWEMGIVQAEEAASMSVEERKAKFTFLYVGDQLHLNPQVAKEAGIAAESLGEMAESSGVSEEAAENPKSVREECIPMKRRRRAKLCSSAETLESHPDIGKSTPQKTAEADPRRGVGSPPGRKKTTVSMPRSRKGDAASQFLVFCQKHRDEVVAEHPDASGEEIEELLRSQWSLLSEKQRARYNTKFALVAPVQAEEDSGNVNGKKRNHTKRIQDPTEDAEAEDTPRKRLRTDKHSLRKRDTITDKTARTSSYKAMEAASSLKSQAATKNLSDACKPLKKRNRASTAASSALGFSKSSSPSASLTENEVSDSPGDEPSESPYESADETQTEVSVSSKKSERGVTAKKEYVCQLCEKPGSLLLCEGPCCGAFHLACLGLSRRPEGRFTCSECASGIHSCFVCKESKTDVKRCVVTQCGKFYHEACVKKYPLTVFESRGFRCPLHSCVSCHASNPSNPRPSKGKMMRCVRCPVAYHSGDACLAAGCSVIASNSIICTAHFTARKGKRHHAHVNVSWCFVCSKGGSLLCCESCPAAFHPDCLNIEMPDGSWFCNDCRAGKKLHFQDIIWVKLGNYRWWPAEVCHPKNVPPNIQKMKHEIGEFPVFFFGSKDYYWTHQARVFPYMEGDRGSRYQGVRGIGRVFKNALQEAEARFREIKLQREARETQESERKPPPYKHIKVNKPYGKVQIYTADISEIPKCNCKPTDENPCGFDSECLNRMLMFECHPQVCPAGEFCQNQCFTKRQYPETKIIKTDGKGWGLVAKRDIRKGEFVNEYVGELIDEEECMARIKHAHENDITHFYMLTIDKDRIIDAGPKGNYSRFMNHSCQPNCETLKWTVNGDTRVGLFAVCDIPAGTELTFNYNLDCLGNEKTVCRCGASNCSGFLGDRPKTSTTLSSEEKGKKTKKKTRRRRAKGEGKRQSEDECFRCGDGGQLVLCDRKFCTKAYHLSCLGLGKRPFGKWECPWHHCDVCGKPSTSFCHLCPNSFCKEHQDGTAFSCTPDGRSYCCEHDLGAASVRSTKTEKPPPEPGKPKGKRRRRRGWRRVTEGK

| IC50 [nM] | Structure (SMILES) |
| --- | --- |
| 1 to 10 | COc1cc(F)c(-c2ccc(N3CCC[C@](N)([C@H](O)C(F)F)C3)c(Cn3cnc4c(N)ncnc43)c2)cc1F [Compound I-1, (S)-1-((R)-3-amino-1-(3-((6-amino-9H-purin-9-yl)methyl)-2′,5′-difluoro-4′-methoxy-[1,1′-biphenyl]-4-yl)piperidin-3-yl)-2,2-difluoroethan-1-ol] |
| 10 to 1000 | COc1cc(F)c(-c2cnc(N3CCC[C@](N)([C@H](O)C(F)F)C3)c(Cn3cnc4c(N)ncnc43)c2)cc1F [II-1, (S)-1-((R)-3-amino-1-(3-((6-amino-9H-purin-9-yl)methyl)-5-(2,5-difluoro-4-methoxyphenyl)pyridin-2-yl)piperidin-3-yl)-2,2-difluoroethan-1-ol] |
| > 1000 | COc1cc(F)c(-c2ccc(N3CCC[C@](N)([C@H](O)C(F)F)C3)c(Cn3cnc4c(N)ncnc43)n2)cc1F [III-1, (S)-1-((R)-3-amino-1-(2-((6-amino-9H-purin-9-yl)methyl)-6-(2,5-difluoro-4-methoxyphenyl)pyridin-3-yl)piperidin-3-yl)-2,2-difluoroethan-1-ol] |
